Assay results taken from patent US7834030B2, “Phenyl-[1,2,4]-oxadiazol-5-one derivatives, pharmaceutical compositions and therapeutic use thereof” (Sanofi-Aventis, priority 2005, dated 2010).

Each molecule was assayed against T1, human PPARdelta (Homo sapiens, UniProt Q03181) (assay: cellular PPARdelta assay (GAL4 luciferase reporter, stably transfected HEK cell line)).
T1 construct: human PPARdelta receptor (amino acids S139-Y441); expressed in transfected cells; plasmid pcDNA3
T1 sequence (Q03181 139-441): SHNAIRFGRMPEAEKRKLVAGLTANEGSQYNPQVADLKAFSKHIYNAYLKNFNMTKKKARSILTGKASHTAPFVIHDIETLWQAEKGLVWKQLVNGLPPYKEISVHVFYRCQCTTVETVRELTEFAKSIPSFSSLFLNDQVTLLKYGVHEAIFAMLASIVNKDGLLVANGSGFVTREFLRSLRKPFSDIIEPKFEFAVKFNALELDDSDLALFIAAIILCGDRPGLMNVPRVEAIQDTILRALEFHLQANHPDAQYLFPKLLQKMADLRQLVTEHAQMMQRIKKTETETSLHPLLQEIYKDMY
Format: cell-based
Description: The PPARalpha reporter cell line is cultivated to 80% confluence in DMEM (# 41965-039, Invitrogen) which is mixed with the following additions: 10% cs-FCS (fetal calf serum; #SH-30068.03, Hyclone), 0.5 mg/ml zeocin (#R250-01, Invitrogen), 0.5 mg/ml G418 (#10136-027, Invitrogen), 1% penicillin-streptomycin solution (#15140-122, Invitrogen) and 2 mM L-glutamine (#25030-024, Invitrogen). The cultivation takes place in standard cell culture bottles (# 353612, Becton Dickinson) in a cell culture incubator at 37° C. in the presence of 5% CO2. The 80%-confluent cells are washed once with 15 ml of PBS (#14190-094, Invitrogen), treated with 3 ml of trypsin solution (#25300-054, Invitrogen) at 37° C. for 2 min, taken up in 5 ml of the DMEM described and counted in a cell counter. After dilution to 500.000 cells/ml, 35,000 cells are seeded in each well of a 96 well microtiter plate with a clear plastic base (#3610, Corning Costar). The plates are incubated in the cell culture incubator at 37° C. and 5% CO2 for 24 h.
PPARalpha agonists to be tested are dissolved in DMSO in a concentration of 10 mM. This stock solution is diluted in DMEM (#41965-039, Invitrogen) which is mixed with 5% cs-FCS (#SH-30068.03, Hyclone), 2 mM L-glutamine (#25030-024, Invitrogen) and the previously described antibiotics (zeocin, G418, penicillin and streptomycin). Test substances are tested in 11 different concentrations in the range from 10 μM to 100 pM.
The medium of the PPARalpha reporter cell line seeded on day 1 is completely removed by aspiration, and the test substances diluted in medium are immediately added to the cells. The dilution and addition of the substances is carried out by a robot (Beckman FX). The final volume of the test substances diluted in medium is 100 μl per well of a 96 well microtiter plate. The DMSO concentration in the assay is less than 0.1% v/v in order to avoid cytotoxic effects of the solvent.
The PPARalpha reporter cells treated with the test substances are removed from the incubator, and the medium is aspirated off. The cells are lyzed by pipetting 50 μl of Bright Glo reagent (from Promega) into each well of a 96 well microtiter plate. After incubation at room temperature in the dark for 10 minutes, the microtiter plates are measured in the luminometer (Trilux from Wallac). The measuring time for each well of a microtiter plate is 1 sec.
The raw data from the luminometer are transferred into a Microsoft Excel file. Dose-effect plots and EC50 values of PPAR agonists are calculated using the XL.Fit program as specified by the manufacturer (IDBS). […] The compounds of the present invention of formula I activate the PPARalpha receptor.
The potency of substances which bind to human PPARdelta and activate it in an agonistic manner was analyzed using a stably transfected HEK cell line (HEK=human embryo kidney) which is referred to here as PPARdelta reporter cell line. In analogy to the assay described for PPARalpha, the PPARdelta reporter cell line also contains two genetic elements, a luciferase reporter element (pdeltaM-GAL4-Luc-Zeo) and a PPARdelta fusion protein (GR-GAL4-humanPPARdelta-LBD) which mediates expression of the luciferase reporter element depending on a PPARdelta ligand. The stably and constitutively expressed fusion protein GR-GAL4-humanPPARdelta-LBD binds in the cell nucleus of the PPARdelta reporter cell line via the GAL4 protein portion to the GAL4 DNA binding motifs 5′-upstream of the luciferase reporter element which is stably integrated in the genome of the cell line. There is only little expression of the luciferase reporter gene in the absence of a PPARdelta ligand if fatty acid-depleted fetal calf serum (cs-FCS) is used in the assay. PPARdelta ligands bind and activate the PPARdelta fusion protein and thereby stimulate expression of the luciferase reporter gene. The luciferase which is formed can be detected by means of chemiluminescence via an appropriate substrate. […]
`CCC(Oc1ccc(-c2noc(=O)[nH]2)c(Cl)c1)c1sc(-c2ccc(C(F)(F)F)cc2)nc1C` (racemic) [Example 4, 3-(2-Chloro-4-{1-[4-methyl-2-(4-trifluoromethyl-phenyl)-thiazol-5-yl]-propoxy}-phenyl)-4H-[1,2,4]oxadiazol-5-one] was tested, and the EC50 was 0.2 nM.
For `Cc1nc(-c2ccc(C(F)(F)F)cc2)sc1C(Cc1ccccn1)Oc1ccc(-c2noc(=O)[nH]2)c(Cl)c1` (racemic) [Example 10, 3-(2-Chloro-4-{1-[4-methyl-2-(4-trifluoromethyl-phenyl)-thiazol-5-yl]-2-pyridin-2-yl-ethoxy}-phenyl)-4H-[1,2,4]oxadiazol-5-one], the EC50 was 6 nM.
`CCC(Oc1ccc(-c2noc(=O)[nH]2)c(C2CC2)c1)c1sc(-c2ccc(C(F)(F)F)cc2)nc1C` (racemic) [Example 16, 3-(2-Cyclopropyl-4-{1-[4-methyl-2-(4-trifluoromethyl-Phenyl)-thiazol-5-yl]-propoxy}-phenyl)-4H-[1,2,4]oxadiazol-5-one] was tested, and the EC50 was 1 nM.
Molecule `Cc1nc(-c2ccc(C(F)(F)F)cc2)sc1C(Oc1ccc(-c2noc(=O)[nH]2)c(Cl)c1)C(F)(F)F` (racemic) [Example 20, 3-(2-Chloro-4-{2,2,2-trifluoro-1-[4-methyl-2-(4-trifluoromethyl-phenyl)-thiazol-5-yl]-ethoxy}-phenyl)-4H-[1,2,4]oxadiazol-5-one] has an EC50 of 1 nM.
For `Cc1nc(-c2ccc(C(F)(F)F)cc2)sc1C(OCc1ccc(-c2noc(=O)[nH]2)c(F)c1)C(F)(F)F` (racemic) [Example 22, 3-(2-Fluoro-4-{2,2,2-trifluoro-1-[4-methyl-2-(4-trifluoromethyl-phenyl)-thiazol-5-yl]-ethoxymethyl}-phenyl)-4H-[1,2,4]oxadiazol-5-one], the EC50 was 17 nM.
`Cc1nc(-c2ccc(C(F)(F)F)cc2)sc1C(OCc1ccc(-c2noc(=O)[nH]2)c2cccnc12)C(F)(F)F` (racemic) [Example 25, 3-(8-{2,2,2-Trifluoro-1-[4-methyl-2-(4-trifluoromethyl-phenyl)-thiazol-5-yl]-ethoxymethyl}-quinolin-5-yl)-4H-[1,2,4]oxadiazol-5-one] showed an EC50 of 3 nM.
For `Cc1nc(-c2ccc(C(F)(F)F)cc2)sc1C(OCc1ccc(-c2noc(=O)[nH]2)c(Cl)n1)C(F)(F)F` (racemic) [Example 27, 3-(2-Chloro-6-{2,2,2-trifluoro-1-[4-methyl-2-(4-trifluoromethyl-phenyl)-thiazol-5-yl]-ethoxymethyl}-pyridin-3-yl)-4H-[1,2,4]oxadiazol-5-one], the EC50 was 17 nM.
In the case of `Cc1nc(-c2ccc(C(F)(F)F)cc2)sc1C(OCc1ccc(-c2noc(=O)[nH]2)cc1)C(F)(F)C1CC1` (racemic) [Example 32, 3-(4-{2-Cyclopropyl-2,2-difluoro-1-[4-methyl-2-(4-trifluoromethyl-phenyl)-thiazol-5-yl]-ethoxymethyl}-phenyl)-4H-[1,2,4]oxadiazol-5-one], the EC50 is reported as 127 nM.
`CCCCC(Cc1ccc(-c2noc(=O)[nH]2)c(F)c1)c1sc(-c2ccc(C(F)(F)F)cc2)nc1C` (racemic) [Example 34, 3-(2-Fluoro-4-{2-[4-methyl-2-(4-trifluoromethyl-phenyl)-thiazol-5-yl]-hexyl}-phenyl)-4H-[1,2,4]oxadiazol-5-one] was tested, and the EC50 was 1 nM.
`CCC(Oc1ccc(-c2noc(=O)[nH]2)c(F)c1)c1sc(-c2ccc(C(F)(F)F)cc2)nc1C` (racemic) [Example 35, 3-(2-Fluoro-4-{1-[4-methyl-2-(4-trifluoromethyl-phenyl)-thiazol-5-yl]-propoxy}-phenyl)-4H-1,2,4-oxadiazol-5-one] showed an EC50 of 4 nM.
In the case of `CCC(Oc1ccc(-c2noc(=O)[nH]2)c(OC(F)F)c1)c1sc(-c2ccc(C(F)(F)F)cc2)nc1C` (racemic) [Example 37, 3-(2-Difluoromethoxy-4-{1-[4-methyl-2-(4-trifluoromethyl-phenyl)-thiazol-5-yl]-propoxy}-phenyl)-4H-1,2,4-oxadiazol-5-one], the EC50 is reported as 0.5 nM.
Work on `CCC(Oc1ccc(-c2noc(=O)[nH]2)c(OC)c1)c1sc(-c2ccc(C(F)(F)F)cc2)nc1CN1CCC(C(F)(F)F)CC1` (racemic) [Example 42, 3-(2-Methoxy-4-{1-[2-(4-trifluoromethyl-phenyl)-4-(4-trifluoromethyl-piperidin-1-ylmethyl)-thiazol-5-yl]-propoxy}-phenyl)-4H-1,2,4-oxadiazol-5-one] yielded an EC50 of 8 nM.
In the case of `CCC(Oc1ccc(-c2noc(=O)[nH]2)c(OCC(F)(F)F)c1)c1sc(-c2ccc(C(F)(F)F)cc2)nc1C` (racemic) [Example 48, 3-[4-{1-[4-Methyl-2-(4-trifluoromethyl-phenyl)-thiazol-5-yl]-propoxy}-2-(2,2,2-trifluoro-ethoxy)-phenyl]-4H-1,2,4-oxadiazol-5-one], the EC50 is reported as 1 nM.
With `CC[C@@H](Oc1cc(OC)c(-c2noc(=O)[nH]2)cc1F)c1sc(-c2ccc(C(F)(F)F)cc2)nc1C` [(+)-40, (+)-3-(5-Fluoro-2-methoxy-4-{(R)-1-[4-methyl-2-(4-trifluoromethyl-phenyl)-thiazol-5-yl]-propoxy}-phenyl)-4H-1,2,4-oxadiazol-5-one] the EC50 was 1 nM.
With `CC[C@@H](Oc1ccc(-c2noc(=O)[nH]2)c(OC(F)F)c1)c1sc(-c2ccc(C(F)(F)F)cc2)nc1CN1CCC(C(F)(F)F)CC1` [(+)-45, (+)-3-(2-Difluoromethoxy-4-{(R)-1-[2-(4-trifluoromethyl-phenyl)-4-(4-trifluoromethyl-piperidin-1-ylmethyl)-thiazol-5-yl]-propoxy}-phenyl)-4H-1,2,4-oxadiazol-5-one] the EC50 was 0.3 nM.
